# Results published in patent US20180021277A1, “ANTI-VIRULENCE COMPOSITIONS AND METHODS” (priority 2012, published 2018).
# Where a chain is given by its changes, count along the chain named. Entries after “also recorded” stand apart in the source; their conditions may differ.
# Assays:
# MRSA USA300 [1] = format: in vivo, mice; conditions: topical twice a day for seven days, day 8
# [2] = target: T1, AgrA_C I238A, V235A, V232A and double mutants (Staphylococcus aureus, UniProt P0A0I7, I238A); assay: Microscale thermophoresis binding to AgrA_C alanine mutants; conditions: data not shown
# T1 construct: made in house
# T1 sequence (P0A0I7 143-238 I238A): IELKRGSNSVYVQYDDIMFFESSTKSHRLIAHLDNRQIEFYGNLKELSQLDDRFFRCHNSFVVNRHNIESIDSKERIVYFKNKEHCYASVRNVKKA
# [3] = target: T2, AgrA_C I238A, V235A, V232A and double mutants (Staphylococcus aureus, UniProt P0A0I7, I238A/V235A); assay: as above
# T2 construct: made in house
# T2 sequence (P0A0I7 143-238 V235A/I238A): T1 sequence (P0A0I7 143-238 I238A) with V93A
# [4] = target: T3, AgrA_C I238A, V235A, V232A and double mutants (Staphylococcus aureus, UniProt P0A0I7, V232A); assay: as above
# T3 construct: made in house
# T3 sequence (P0A0I7 143-238 V232A): T1 sequence (P0A0I7 143-238 I238A) with V90A, A96I
# [5] = target: T4, AgrA_C I238A, V235A, V232A and double mutants (Staphylococcus aureus, UniProt P0A0I7, V235A); assay: as above; conditions: data not shown
# T4 construct: made in house
# T4 sequence (P0A0I7 143-238 V235A): T1 sequence (P0A0I7 143-238 I238A) with V93A, A96I
# MRSA = assay: CFU counts of F19 treated vs. untreated MRSA cultures (serial dilution-plating); format: cell-based, Staphylococcus aureus
# MRSA USA300 [6] = assay: Host cell damage assay (LDH leakage), MRSA; format: cell-based, Staphylococcus aureus; conditions: for % Damage (LDH Leakage): THP-1 human monocytes; for Damage (%): Table 2, control = 100
# Experimental: (§1) Damage to host cells was measured by leakage of lactate dehydrogenase (LDH) with the CytoTox 96 Non-Radioactive Cytotoxicity LDH Assay Promega Kits G178 and G1782 according to manufacturer's instructions.
# (§2) […] The bacteria were cultured at 37° C., in a shaking incubator for 6 h at which time 20 μL of bacterial culture was added to 5×10^4 THP-1 monocytes or J774.2 macrophages in 100 μL of cell media (DMEM for J774.2 cells and RPMI for THP-1 cells) in 96 well plates. Bacteria and macrophage/monocytes were incubated together for 40 min at 37° C. Plates were then spun at 250 g for 4 min and 50 μL of the supernatant was removed to a new 96 well plate. 50 μL of substrate mix+assay buffer were added and incubated at room temperature for 10-30 min depending upon the rate of product formation and stopped by addition of 50 μL stop solution. The colorometric products were read at 490 nm on a Victor 3 plate reader. The data presented are from experiments performed in triplicate.
# (§3) Gram-positive pathogens compromise host cell defense factors by puncturing membranes of immune system cells. To examine F19 efficacy in preventing host cell damage by various pathogens cell lysis assays were carried out by measuring leakage of lactate dehydrogenase (LDH) from cells. F19 indeed inhibits pathogen-mediated lysis of human THP-1 monocytes and mouse macrophage cell line J7774.2 by a series of Gram-positive pathogens, including MRSA, MRSE, Streptococcus pyogenes, Streptococcus pneumoniae and Bacillus cereus in a dose dependent manner (Table 2 for MRSA, Table 4 for other pathogens).
# [7] = system: Strepococcus pyogenes AC7; assay: Host cell damage assay (LDH leakage), Streptococcus pyogenes; format: cell-based; conditions: THP-1 human monocytes
# Experimental: as §1, §2, §3
# [8] = system: Strepococcus pneumonia NR13395; assay: Host cell damage assay (LDH leakage), Streptococcus pneumoniae; format: cell-based; conditions: THP-1 human monocytes
# Experimental: as §1, §2, §3
# MRSE Q-15 [9] = assay: Biofilm measurement (crystal violet), MRSE; format: cell-based, Staphylococcus epidermidis; conditions: control = 100
# Experimental: Bacterial cells were grown in Luria Broth overnight and an OD600 of 0.5 corresponding to 10^6 cfu/mL. 200 μL of this bacterial culture was plated with the presence of compound at various concentrations. Biofilm was allowed to form by placing the plate at 37° C. in the incubator without shaking. The plate was then washed 2× with water while being careful not to disturb the biofilm. Water was aspirated out and the plate was baked dry in a 60° C. incubator for 2 h. 125 μL of a 0.06% crystal violet solution ([…] in H2O) was added to each well and allowed to sit at room temperature for 15 minutes. […] The plate was inverted on a paper towel to dry overnight.125 μL of 30% acetic acid was added to each well and was left at room temperature for 15 minutes. The wells were mixed by pipetting and the solution was transferred to a clean 96-well plate and read at OD595.
# [10] = system: MRSA strain lacking the agr operon (Lac Δagr); assay: Biofilm formation in MRSA strain lacking the agr operon; format: cell-based, Staphylococcus aureus; conditions: data not shown
# [11] = system: MRSA knockout strain (Lac Δagr); format: cell-based, Staphylococcus aureus; conditions: data not shown
# MRSA USA300 [12] = assay: Emergence of resistance in vitro: daily passaging with hemolysis read-out; format: cell-based, Staphylococcus aureus; conditions: 50 μg/mL, 16 daily passages; listed as F19
# MRSE Q-15 [13] = assay: RT-qPCR of virulence gene transcription in MRSE; conditions: 50 μg/mL F19
structure (smiles),measurement,setting,value
CCCCCCc1cc(C(=O)COc2ccc(C(C)C)cc2)c(O)cc1O [4f-19],bacterial load on the wounds compared to vehicle-treated or untreated wounds,MRSA USA300 [1],did not reduce the bacterial load on the wounds
same,"tissue burden of the wound, average log CFUs ± standard deviation","MRSA USA300 [1]; cephalothin 30 mg/kg, F19 20 mg/kg, vancomycin 30 mg/kg",8.50±0.4 log CFU
same,reduction of affinity by I238A mutant,[2],14 fold
same,binding to the I238A/V235A double mutant,[3],very weak binding at the background level of the instrument
same,affinity to V232A mutant,[4],no loss of affinity
same,reduction of affinity by V235A mutant,[5],5 fold
same,"CFU counts, F19 treated vs. untreated cultures",MRSA,identical CFU counts
same,% Damage (LDH Leakage),MRSA USA300 [6]; F19 1 μg/mL,62.0 ± 0.6%
same,% Damage (LDH Leakage),MRSA USA300 [6]; F19 10 μg/mL,44.2 ± 2.0%
same,% Damage (LDH Leakage),MRSA USA300 [6]; F19 50 μg/mL,29.1 ± 1.6%
same,Damage (%),MRSA USA300 [6]; F19 1 μg/ml,62.0 ± 0.6%
same,Damage (%),MRSA USA300 [6]; F19 10 μg/ml,44.2 ± 2.0%
same,Damage (%),MRSA USA300 [6]; F19 50 μg/ml,29.1 ± 1.6%
same,% Damage (LDH Leakage),[7]; F19 5 μg/mL,97.4 ± 0.7%
same,% Damage (LDH Leakage),[7]; F19 10 μg/mL,88.4 ± 1.9%
same,% Damage (LDH Leakage),[7]; F19 20 μg/mL,73.6 ± 0.5%
same,% Damage (LDH Leakage),[7]; F19 30 μg/mL,56.2 ± 3.4%
same,% Damage (LDH Leakage),[7]; F19 40 μg/mL,38.7 ± 1.8%
same,% Damage (LDH Leakage),[8]; F19 1 μg/mL,89.3 ± 1.0%
same,% Damage (LDH Leakage),[8]; F19 5 μg/mL,68.3 ± 1.1%
same,% Damage (LDH Leakage),[8]; F19 10 μg/mL,45.5 ± 1.7%
same,% Damage (LDH Leakage),[8]; F19 20 μg/mL,37.1 ± 0.6%
same,% Damage (LDH Leakage),[8]; F19 50 μg/mL,37.7 ± 0.7%
same,Biofilm (%),MRSE Q-15 [9]; F19 1 μg/ml,92.2 ± 9.8%
same,Biofilm (%),MRSE Q-15 [9]; F19 10 μg/ml,69.3 ± 10.7%
same,Biofilm (%),MRSE Q-15 [9]; F19 50 μg/ml,34.1 ± 9.8%
same,biofilm formation in Lac Δagr,[10],biofilm inhibition was also observed
same,synergy with antibiotics in Lac Δagr,[11],synergy is lost
same,emergence of resistance/tolerance: hemolysis of rabbit blood over daily passages,MRSA USA300 [12],no increase in hemolysis; also recorded: No emergence of resistance
same,inhibition of AtlE transcription,MRSE Q-15 [13],1910 fold
same,inhibition of psm-α transcription,MRSE Q-15 [13],5043 fold
